Read-outs that look alike come from different tables or passages of the source.
Key:
[1] = Turbidity, derived count rate of scattered light; format: physicochemical; conditions: for Log Count Rate: log of derived count rate; for Count Rate: turbidity; for Count Rate / Zeta Count Rate / kcps: derived count rate of scattered light
Outline: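 Samples: 1 mg/mL in PBS pH 7.4 (from DMSO), 1 d at RT, then diluted in 1 mM KCl immediately before measurement. Triplicates, two independent runs averaged.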

[2] = test system: HIV-1 infection of TZM-bl cells; assay: HIV-1 infectivity enhancement assay, β-galactosidase luminescence; format: cell-based; conditions: for Rel-to EFC / n-fold to virus: Fig S8 panels B, D; for Log10 Inf. rel. to EF-C: log10 of HIV-1 infection of TZM-bl cells relative to EF-C, Fig S15 source data, asymmetric std dev errors
[3] = Zeta-potential measurement; format: physicochemical; conditions: for Zeta-pot. / mV: zeta potential of peptide, Fig S15 source data
Outline: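 Peptides diluted from DMSO stock into PBS pH 7.4 to 1 mg/mL and aged 1 d at RT, then diluted into 1 mM aqueous KCl. Zeta potential derived from electrophoretic mobility via Smoluchowski; triplicates, averaged over two independent experiments.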

[4] = Fig S8 panels A, C, asymmetric log errors
[5] = category 1 or 0 derived from the count rate, key not given
[6] = category 1 or 0 from count rate, key not given
[7] = mean, std deviation in next column
[8] = Feb2021, Log10 of infectivity relative to EF-C
[9] = Feb2021, figures match the 1.3 µM column
[10] = Feb2021, infectivity enhancement relative to EF-C
[11] = Feb2021, infectivity relative to virus only
[12] = Feb2021, log10 of infectivity relative to EF-C
[13] = Feb2021, n-fold enhancement relative to EF-C
[14] = Feb2021, n-fold infectivity relative to EF-C
[15] = infectivity enhancement relative to EF-C
[16] = infectivity n-fold relative to virus alone
[17] = infectivity class (low / medium / high) of each library peptide, main list in c1-c6, same classes repeated in sub-lists of sequences containing the hydrophobicity/charge patterns P+,H0,P+,H0,P0,H0,P0, P+,H0,P0,H0,P0,H0,P0, P+,H0,P0,H0
[18] = category derived from the zeta potential
[19] = mean, std deviation in separate column
[20] = Feb2021 run, infectivity n-fold relative to virus alone
[21] = Feb2021 run, log10 of infectivity relative to EF-C
[22] = Feb2021 run, n-fold infectivity relative to EF-C
[23] = infectivity class (low / medium / high) of the peptide in the sequence-pattern analysis, Fig. S22-A4, class limits not given
[24] = Feb2021, 1.3 µM value relative to virus only (0 µM)
[25] = Feb2021, unrounded values of the 1.3 µM column

| Substance | Log Count Rate [1, 4] | Log Count Rate ([1]; Fig S8 panels B, D) | Count Rate ([1]; Fig S8 panels B, D) | Zeta Count Rate Category [1, 6] | Zeta Count Rate / kcps [1, 7] [kcps] | Log10 of Rel to EFC (Feb2021) [2, 8] | Rel-to EFC (Feb-2021) [2, 13] | Rel-to EFC (Feb-2021) [2, 14] | Rel-to EFC [2, 15] | n-fold to virus [2, 16] | infectivity [2, 17] | Log10 Inf. rel. to EF-C [2] | Zeta category ( +1 = if > 4 mV;-1 = if < -4 mV; 0 = -4mV to 4 mV) [3] | Zeta category ( +1 = if > 4 mV;-1 = if < -4 mV; 0 = -4mV to 4 mV) ([3]; category from zeta potential) | Zeta Pot. / mV ([3]; mean, Std Zeta in next column) [mV] | Zeta-pot. / mV [3] [mV] | Zeta Count Rate / kcps [1, 19] [kcps] | n-fold to virus (Feb2021) [2, 20] | Log10 of Rel to EFC (Feb2021) [2, 21] | Rel-to EFC (Feb-2021) [2, 22] | other results |
| --- | --- | --- | --- | --- | --- | --- | --- | --- | --- | --- | --- | --- | --- | --- | --- | --- | --- | --- | --- | --- | --- |
| KIKIQIC [TM112 / CN11] | 2.992 | 2.992 | 980.67 | 1 | 980.7 | -0.2164 | 0.6076 | 0.6076 | 0.6076 | 25.53 | medium | -0.2164 | 1 (+1 = if > 4 mV) | 1 (+1 = if > 4 mV) | 19.93 | 19.93 | – | – | – | – | Zeta Count Rate Category ([1]; category 1 / 0, no key given): 1; Zeta Count Rate Category [1, 5]: 1; Zeta Count Rate / kcps [1]: 980.7 kcps; Absolute Infectivity / RLU /s (Feb2021) [2, 9]: 9447 RLU /s; Rel-to EFC (Feb-2021) [2, 10]: 0.6076; n-fold to virus (Feb2021) [2, 11]: 25.53; Log10 of Rel to EFC (Feb2021) [2, 12]: -0.2164; Zeta Pot. / mV [3]: 19.93 mV; Zeta category ( +1 = if > 4 mV;-1 = if < -4 mV; 0 = -4mV to 4 mV) [3, 18]: 1 (+1 = if > 4 mV) |
| QCKFKQFFNMWQ [CK10] | – | 4.277 | 18911.4 | 1 | 18911.36667 | -0.606 | 0.2478 | 0.2478 | 0.2478 | 6.098 | medium | -0.6059 | 1 (+1 = if > 4 mV) | 1 (+1 = if > 4 mV) | 9.587 | 9.587 | 18911.36667 | 6.098 | -0.606 | 0.2478 | Zeta Count Rate Category ([1]; category 1 / 0, no key given): 1; Zeta Count Rate / kcps [1]: 18911.36667 kcps; n-fold to virus (Feb2021) [2, 11]: 6.098; Zeta Pot. / mV [3]: 9.587 mV; Zeta Pot. / mV ([3]; mean, Std in separate column): 9.587 mV |
| KIKIKIQINMWQ [VH9] | – | – | – | 1 | 1603.1 | -0.1048 | 0.7855 | – | – | – | high | -0.1048 | – | 1 (+1 = if > 4 mV) | 13.1 | 13.1 | – | – | – | – | infectivity [2, 23]: high |
| CKIKIQINMWQ [MG1] | – | – | – | 1 | 1881 | -0.155 | 0.6998 | 0.6998 | – | – | medium | -0.155 | 1 (+1 = if > 4 mV) | 1 (+1 = if > 4 mV) | 13.87 | 13.87 | 1881 | 29.41 | -0.155 | 0.6998 | Zeta Count Rate Category ([1]; category 1/0, no key printed): 1; n-fold to virus (Feb2021) [2, 24]: 29.41; Absolute Infectivity / RLU /s (Feb2021) [2, 25]: 18623.33333 RLU /s; Zeta Pot. / mV ([3]; mean, Std in separate column): 13.87 mV |
| CKFKFQFW [TM72] | 4.466 | 4.466 | 29210.5 | – | 29210.5 | -0.05512 | – | – | 0.8808 | 37.01 | high | -0.05512 | – | – | 15.2 | 15.2 | – | – | – | – | Zeta Count Rate Category [1, 5]: 1; Rel-to EFC (Feb-2021) [2, 10]: 0.8808; infectivity [2, 23]: high; Zeta category ( +1 = if > 4 mV;-1 = if < -4 mV; 0 = -4mV to 4 mV) [3, 18]: 1 (+1 = if > 4 mV) |
| CKFKFQFNM [BL3] | 3.347 | 3.347 | 2223.63 | 1 | 2224 | 0.09417 | 1.242 | 1.242 | 1.242 | 52.19 | high | 0.09417 | 1 (+1 = if > 4 mV) | 1 (+1 = if > 4 mV) | 15.13 | 15.13 | 2224 | 52.19 | 0.09417 | 1.242 | Zeta Count Rate Category ([1]; category 1/0, no key printed): 1; n-fold to virus (Feb2021) [2, 24]: 52.19; Absolute Infectivity / RLU /s (Feb2021) [2, 25]: 28183.33333 RLU /s; infectivity [2, 23]: high; Zeta Pot. / mV ([3]; mean, Std in separate column): 15.13 mV |
| CKFKQFF [CK15] | 0.4099 | 0.4099 | 2.57 | – | 2.567 | -2.171 | – | 0.00675 | 0.00675 | 0.2836 | low | -2.171 | 1 (+1 = if > 4 mV) | – | 11.56 | 11.56 | 2.567 | 0.2836 | -2.171 | 0.00675 | Zeta Count Rate Category ([1]; category 1 / 0, no key given): 0; Zeta Count Rate Category [1, 5]: 0; Zeta Count Rate / kcps [1]: 2.567 kcps; Absolute Infectivity / RLU /s (Feb2021) [2, 9]: 260 RLU /s; Rel-to EFC (Feb-2021) [2, 10]: 0.00675; n-fold to virus (Feb2021) [2, 11]: 0.2836; Zeta Pot. / mV [3]: 11.56 mV; Zeta category ( +1 = if > 4 mV;-1 = if < -4 mV; 0 = -4mV to 4 mV) [3, 18]: 1 (+1 = if > 4 mV); Zeta Pot. / mV ([3]; mean, Std in separate column): 11.56 mV |
| MKFKFQF [DF5 / CK16] | – | – | – | – | 124 | – | – | 0.06366 | – | – | low | -1.196 | 0 (0 = -4mV to 4 mV) | – | -3.133 | -3.133 | – | – | – | – | Zeta Count Rate Category ([1]; category 1/0, no key printed): 1; n-fold to virus (Feb2021) [2, 24]: 2.675; Log10 of Rel to EFC (Feb2021) [2, 12]: -1.196; Absolute Infectivity / RLU /s (Feb2021) [2, 25]: 1427 RLU /s |
